Results on one compound are retold here after article PMC4926433, “Isoquercitrin Esters with Mono- or Dicarboxylic Acids: Enzymatic Preparation and Properties” (International Journal of Molecular Sciences, 2016).

Values after ≈ are worked out from the molar mass of the structure shown. Values joined by “and” are separate entries in the source; they are usually repeats but may differ in a detail not shown here. Equal entries are not always repeated.

The test system of data set [1] is rat liver microsomal membranes. Nature of the data set: Inhibition of microsomal lipid peroxidation induced by tert-butyl hydroperoxide (TBARS). It counts as biochemical. The conditions noted are these: male rat liver microsomes, tert-butylhydroperoxide 1 mM, 37 °C, 30 min, TBARS; mean ± SE; read-out: Lpx (IC50; µM). The source says: Lipid peroxidation is a type of oxidative degradation of lipids caused by free radicals in cell membranes, resulting in cell damage. The most notable initiators of this chain reaction in living cells are reactive oxygen species (ROS), such as OH· and HO2·, which combine with a hydrogen atom to make water and a fatty acid radical. We used tert-butyl hydroperoxide, a relatively stable organic peroxide, as initiator of peroxidation of rat liver microsomal membranes. The inhibition of this reaction depends not only on the free radical scavenging capacity, but also on the capacity of these compounds to interact with and penetrate lipid bilayers. Isoquercitrin derivatives differed considerably in their capacity to inhibit the peroxidation of microsomal membranes. […] A similar trend, e.g., improving the activity in medium chain derivatives with subsequent drop for longer chain esters, was reported for anti-proliferative activity of IQ monocarboxylic acid esters on the growth of tumoral Caco2 cells, and also for the inhibition of tyrosinase activity.
Pooled microsomes from male rat livers (M9066, Sigma-Aldrich, Prague, Czech Republic) were washed five times using centrifugation and phosphate-buffered saline (PBS, 13,500 rpm, 5 min, 4 °C) to remove sucrose. In addition, 400 µL of the diluted microsomal suspension (0.625 mg protein/mL in PBS), the compounds tested in 50 µL of dimethyl sulfoxide (DMSO, final concentration 5–2000 µM) and 50 µL of tert-butylhydroperoxide in PBS (final concentration 1 mM) were mixed and incubated at 37 °C for 30 min. Determination of lipid peroxidation products as thiobarbituric acid reactive substances (TBARS) and calculation of the IC50 values were performed as described previously.
(Liver microsomes are a subcellular fraction often used to study metabolism.)

Data set [2] is described as follows: Folin–Ciocalteau reduction (FCR) assay, reducing capacity. Format: biochemical. To be noted: gallic acid equivalents; mean ± SE. How it is done:
Folin-Ciocalteu assay, commonly known as the total phenols assay, determines a sample reducing capacity. FCR contains heteropolyphosphotunstate-molybdates, which are reduced in aqueous milieu at pH ≈ 10 to blue species, presumably (PMoW11O40)^4- [29]. […] This is probably related to high hydrophobicity of these derivatives. Reducing capacity was evaluated using Folin-Ciocalteau reagent with minor modifications as described previously.

A short description of data set [3]: ABTS radical cation scavenging (Antioxidant Assay Kit). It counts as biochemical. The conditions noted are these: Trolox equivalents; aqueous buffer pH 5; mean ± SE. The procedure: Determination of ABTS scavenging activity involves an electron-transfer reaction. […] The capacity to scavenge the radical cation (ABTS^·) was evaluated using the Antioxidant Assay Kit (CS0790, Sigma-Aldrich, Prague, Czech Republic) and expressed as Trolox equivalents (TE) from the Trolox calibration curve.

Data set [4] in a line: DPPH radical scavenging assay. It counts as biochemical. The conditions noted are these: methanol, DPPH 20 µM, 30 min; mean ± SE. The procedure:
When reduced, the solution decolorizes in proportion to the strength and concentration of the antiradical compound tested. The results of this test are usually expressed as the concentration of the compound that reduces 50% of the radical (IC50, Table 1). […] However, no clear relationship between the carboxylic chain length and DPPH radical scavenging activity could be established. Antiradical activity was evaluated spectrophotometrically as the ability of the substances to reduce the DPPH radical as described previously with minor modifications.
Background: DPPH is a stable violet radical that fades when it is reduced.

For data set [5] the following is noted: 50 °C, cited from earlier work.
A further data set is described as follows: Solubility in water. It counts as physicochemical. The conditions noted are these: pH = 6.5, isoquercitrin purity 96.5%. From the text:
The hydrophilicity/lipophilicity of a compound is often crucial for assessing its bioavailability. Flavonoids are generally poorly soluble in water; aqueous solubility increases at alkaline pH as phenols are weak acids. […] [15]).

The conditions of data set [6]: pH not given; cited from earlier work.

For orientation: IC50 means the point on the concentration scale where inhibition reaches its midpoint. For orientation: solubility means the concentration that dissolves in the medium under given conditions. Take `O=c1c(O[C@@H]2O[C@H](CO)[C@@H](O)[C@H](O)[C@H]2O)c(-c2ccc(O)c(O)c2)oc2cc(O)cc(O)c12` [Compound 1, quercetin-3-O-β-D-glucopyranoside, reference compound]: the IC50 was 972 ± 11 µM in data set [1] and 1.4 ± 0.06 µM in data set [4]. Further, the “FCR (GAE)” value in data set [2] was 1.84 GAE and 1.84 ± 0.04 ^a GAE. The “ABTS (TE)” value in data set [3] was 1.97 TE and 1.97 ± 0.06 ^i TE. The solubility in acetone in data set [5] (acetone) was 14 mg/mL (≈ 30100 µM). Besides, in data set [5] (acetonitrile), the solubility in acetonitrile is 1.8 mg/mL (≈ 3880 µM). Moreover, in data set [5] (tert-amyl alcohol), the “solubility in tert-amyl alcohol” value is 30 mg/mL (≈ 64600 µM). In “Solubility in water”, this compound returned a solubility of 0.36 mg/mL (≈ 775 µM). Besides, in data set [6], the solubility in water was 0.095 mg/mL (≈ 205 µM).
